Patent US20240299387A1, “HETEROCYCLIC EGFR INHIBITORS FOR USE IN THE TREATMENT OF CANCER” (Blueprint Medicines Corporation, priority 2021, published 2024)

What was measured:
[1] = tested on: EGFR mutant NSCLC (EGFR M+); conditions: NSCLC patients; average treatment time to resistance; cited from earlier work
EGFR (L858R T790M C797S) = molecular target: T1, EGFR (L858R T790M C797S) (Homo sapiens, UniProt P00533, C797S/L858R/T790M); assay: Biochemical EGFR inhibition assay (Caliper mobility shift), EGFR LRTMCS mutant; conditions: LRTMCS (PH) IC50 (nM) @ 1 mM ATP (Num)
T1 construct: purchased SignalChem E10-122VG
T1 sequence (P00533 25-1210 T790M/C797S/L858R): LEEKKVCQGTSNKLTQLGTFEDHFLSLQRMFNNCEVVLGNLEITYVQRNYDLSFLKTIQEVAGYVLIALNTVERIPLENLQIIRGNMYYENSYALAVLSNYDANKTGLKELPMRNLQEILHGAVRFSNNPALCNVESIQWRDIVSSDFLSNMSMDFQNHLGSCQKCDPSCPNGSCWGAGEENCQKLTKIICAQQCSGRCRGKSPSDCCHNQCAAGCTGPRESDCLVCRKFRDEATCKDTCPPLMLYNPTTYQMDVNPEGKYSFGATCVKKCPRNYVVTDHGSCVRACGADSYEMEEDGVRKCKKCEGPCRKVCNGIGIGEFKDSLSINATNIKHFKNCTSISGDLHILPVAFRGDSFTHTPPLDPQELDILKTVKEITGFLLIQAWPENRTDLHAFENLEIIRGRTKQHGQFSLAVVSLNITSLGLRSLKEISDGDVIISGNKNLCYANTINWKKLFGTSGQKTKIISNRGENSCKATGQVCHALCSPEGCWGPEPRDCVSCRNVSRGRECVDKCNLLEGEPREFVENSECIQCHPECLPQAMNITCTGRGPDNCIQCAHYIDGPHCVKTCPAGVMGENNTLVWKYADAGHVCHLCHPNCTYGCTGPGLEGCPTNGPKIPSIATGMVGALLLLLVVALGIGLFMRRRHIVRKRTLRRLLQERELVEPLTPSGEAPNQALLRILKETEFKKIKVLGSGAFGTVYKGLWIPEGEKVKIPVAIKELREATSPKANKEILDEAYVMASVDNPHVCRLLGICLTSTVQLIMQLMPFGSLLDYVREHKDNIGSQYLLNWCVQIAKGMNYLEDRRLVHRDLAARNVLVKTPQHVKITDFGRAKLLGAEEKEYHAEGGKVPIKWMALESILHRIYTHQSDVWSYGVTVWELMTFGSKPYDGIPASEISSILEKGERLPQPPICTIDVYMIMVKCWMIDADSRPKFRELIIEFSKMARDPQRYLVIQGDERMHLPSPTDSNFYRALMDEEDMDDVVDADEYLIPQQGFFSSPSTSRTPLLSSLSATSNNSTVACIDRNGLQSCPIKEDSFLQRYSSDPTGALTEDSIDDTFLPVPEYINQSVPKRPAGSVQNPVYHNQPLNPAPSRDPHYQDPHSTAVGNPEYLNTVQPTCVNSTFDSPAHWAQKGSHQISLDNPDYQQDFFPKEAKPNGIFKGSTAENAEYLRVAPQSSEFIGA
How it was run: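 Caliper mobility shift read-out: product and substrate peptides separated by electrophoresis and quantified. Reactions at 25° C. taken to 10–20% peptide phosphorylation, quenched with 35 mM EDTA. Apparent IC50 from percent activity vs log [compound].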

[2] = molecular target: T2, EGFR L858R T790M in NCI-H1975 cell line (Homo sapiens, UniProt P00533, L858R/T790M); assay: NCI-H1975 pEGFR AlphaLISA assay; format: cell-based; conditions: NCI-H1975 cells (EGFR L858R T790M), p-EGFR (Tyr1068), 4-5 hours incubation; read-out: Ext pEGFR H1975 GMean IC50 (nM) Protocol: @Pharmaron AlphaLISA (Num)
T2 construct: host or cells: NCI-H1975
T2 sequence (P00533 25-1210 T790M/L858R): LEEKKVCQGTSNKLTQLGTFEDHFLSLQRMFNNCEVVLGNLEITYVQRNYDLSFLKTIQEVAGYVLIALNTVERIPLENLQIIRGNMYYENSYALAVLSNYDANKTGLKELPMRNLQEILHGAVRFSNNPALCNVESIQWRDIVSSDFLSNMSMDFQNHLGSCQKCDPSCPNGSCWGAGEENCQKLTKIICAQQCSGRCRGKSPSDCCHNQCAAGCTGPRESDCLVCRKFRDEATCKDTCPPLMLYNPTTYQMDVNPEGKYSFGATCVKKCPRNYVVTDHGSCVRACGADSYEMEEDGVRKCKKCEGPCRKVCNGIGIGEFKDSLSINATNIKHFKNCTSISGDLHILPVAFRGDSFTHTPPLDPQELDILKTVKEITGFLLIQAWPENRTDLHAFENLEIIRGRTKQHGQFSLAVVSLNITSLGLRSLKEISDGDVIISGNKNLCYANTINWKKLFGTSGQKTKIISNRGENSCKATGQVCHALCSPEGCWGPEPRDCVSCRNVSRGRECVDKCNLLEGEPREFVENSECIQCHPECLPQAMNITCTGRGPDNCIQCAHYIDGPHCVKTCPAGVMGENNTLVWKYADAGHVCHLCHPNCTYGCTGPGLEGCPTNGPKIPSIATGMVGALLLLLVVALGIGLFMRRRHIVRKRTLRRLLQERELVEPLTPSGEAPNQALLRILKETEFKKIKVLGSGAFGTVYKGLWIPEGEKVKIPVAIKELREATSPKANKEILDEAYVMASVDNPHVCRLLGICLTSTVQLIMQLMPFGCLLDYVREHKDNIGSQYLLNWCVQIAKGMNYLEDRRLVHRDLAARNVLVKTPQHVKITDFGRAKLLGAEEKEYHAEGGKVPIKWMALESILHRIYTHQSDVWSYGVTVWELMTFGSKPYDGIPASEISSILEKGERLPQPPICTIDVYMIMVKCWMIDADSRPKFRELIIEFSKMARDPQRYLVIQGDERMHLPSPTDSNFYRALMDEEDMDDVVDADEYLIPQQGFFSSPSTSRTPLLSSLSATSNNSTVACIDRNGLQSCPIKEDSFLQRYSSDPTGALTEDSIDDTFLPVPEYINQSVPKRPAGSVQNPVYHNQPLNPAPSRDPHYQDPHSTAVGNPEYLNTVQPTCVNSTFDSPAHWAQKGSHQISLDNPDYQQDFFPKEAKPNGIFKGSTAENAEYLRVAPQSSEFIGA
How it was run: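 Phospho-EGFR measured by AlphaLISA after overnight donor-bead incubation; IC50 from percent pEGFR inhibition versus log concentration.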

| SMILES | IC50 (EGFR (L858R T790M C797S)) [nM] | IC50 [2] [nM] | time of treatment until resistance is observed [1] |
| --- | --- | --- | --- |
| C=CC(=O)Nc1cc(Nc2nccc(-c3cn(C)c4ccccc34)n2)c(OC)cc1N(C)CCN(C)C [osimertinib] |  |  | approximately 10 months |
| CNC(=O)c1ncc(C(C)C)c2cc(Nc3ccnc(N4C[C@@H](F)[C@@H](O)C(C)(C)C4)n3)ncc12 (single isomer, unassigned) [Example 82, 6-((2-((4S,5R)-5-fluoro-4-hydroxy-3,3-dimethylpiperidin-1l-yl)pyrimidin-4-yl)amino)-4-isopropyl-N-methyl-2,7-naphthyridine-1-carboxamide or 6-((2-((4R,5S)-5-fluoro-4-hydroxy-3,3-dimethylpiperidin-1-yl)pyrimidin-4-yl)amino)-4-isopropyl-N-methyl-2,7-naphthyridine-1-carboxamide] | 15 to 20 | > 50 |  |
| CC(C)c1cnc(C(=O)N[C@@H]2CN(C)C[C@H]2F)c2cnc(Nc3ccnc(N4CC[C@@H](O)[C@@](C)(F)C4)n3)cc12 (single isomer, unassigned) [Example 89] | 15 to 20 | > 50 |  |

More lines, main results first:

| IC50 (EGFR (L858R T790M C797S)) [nM] | IC50 [2] [nM] | SMILES | time of treatment until resistance is observed [1] |
| --- | --- | --- | --- |
| < 15 | 30 to 50 | CO[C@@H]1CCN(c2nccc(Nc3cc4c(C(C)C)ccc(NCC5CNC[C@@H]5S(C)(=O)=O)c4cn3)n2)C[C@@H]1F (single isomer, unassigned) [Example 1, N3-(2-((3S,4R)-3-fluoro-4-methoxypiperidin-1-yl)pyrimidin-4-yl)-5-isopropyl-N8-(((4R)-4-(methylsulfonyl)pyrrolidin-3-yl)methyl)isoquinoline-3,8-diamine or N3-(2-((3S,4R)-3-fluoro-4-methoxypiperidin-1-yl)pyrimidin-4-yl)-5-isopropyl-N8-(((4S)-4-(methylsulfonyl)pyrrolidin-3-yl)methyl)isoquinoline-3,8-diamine] |  |
| < 15 | 30 to 50 | Cc1nccn1CCOc1ccc(C(C)C)c2cc(Nc3ccnc(N4CC[C@@](C)(O)[C@@H](F)C4)n3)ncc12 [Example 13, (3S,4R)-3-fluoro-1-(4-((5-isopropyl-8-(2-(2-methyl-1H-imidazol-1-yl)ethoxy)isoquinolin-3-yl)amino)pyrimidin-2-yl)-4-methylpiperidin-4-ol] |  |
| 15 to 20 | > 50 | CC(C)c1ccc(OC[C@H]2CCC(=O)N2C)c2cnc(Nc3ccnc(N4CC[C@](C)(O)[C@H](F)C4)n3)cc12 [Example 25, (R)-5-(((3-((2-((3R,4S)-3-fluoro-4-hydroxy-4-methylpiperidin-1-yl)pyrimidin-4-yl)amino)-5-isopropylisoquinolin-8-yl)oxy)methyl)-1-methylpyrrolidin-2-one] |  |
